Assay results reported in ChEMBL document CHEMBL4619827, “Design, Synthesis, and Biological Evaluation of Novel Acylhydrazone Derivatives as Potent Neuraminidase Inhibitors” (ACS Med Chem Lett, 2020).

Assay: Inhibition of clostridium perfringens neuraminidase using fluorescent substrate preincubated for 2 mins followed by substrate addition and measured after 1 hr by fluorescence based microplate reader analysis
Work on `CC(=O)Nc1ccc(OCc2cccc(/C=N/NC(=O)C(=O)NCCCN3CCOCC3)c2)cc1` yielded an IC50 of 73.4 µM. `O=C(NCCCN1CCOCC1)C(=O)N/N=C/c1cccc(COc2ccccc2[N+](=O)[O-])c1` showed an IC50 of 86 µM. `CCC(CC)O[C@@H]1C=C(C(=O)O)C[C@H](N)[C@H]1NC(C)=O` [OSELTAMIVIR CARBOXYLATE] gave an IC50 of 17 µM. Work on `COc1ccc(Br)cc1OCc1cccc(/C=N/NC(=O)C(=O)NCCCN2CCOCC2)c1` yielded an IC50 of 7.31 µM. With `COc1ccc(OCc2cccc(/C=N/NC(=O)C(=O)NCCCN3CCOCC3)c2)cc1` the IC50 was 0.6 µM. For `O=C(NCCCN1CCOCC1)C(=O)N/N=C/c1cccc(COc2ccc(Cl)cc2)c1`, the IC50 was 6.2 µM. With `O=C(NCCCN1CCOCC1)C(=O)N/N=C/c1cccc(COc2ccc(F)cc2)c1` the IC50 was 5.29 µM. For `COc1cccc(OCc2cccc(/C=N/NC(=O)C(=O)NCCCN3CCOCC3)c2)c1`, the IC50 was 13.6 µM. Work on `O=C(NCCCN1CCOCC1)C(=O)N/N=C/c1cccc(COc2ccccc2Cl)c1` yielded an IC50 of 20.4 µM. Work on `O=C(NCCCN1CCOCC1)C(=O)N/N=C/c1cccc(COc2cc(F)ccc2[N+](=O)[O-])c1` yielded an IC50 of 17.8 µM. Work on `O=C(NCCCN1CCOCC1)C(=O)N/N=C/c1cccc(COc2cccc(Cl)c2)c1` yielded an IC50 of 22.1 µM. For `O=C(NCCCN1CCOCC1)C(=O)N/N=C/c1cccc(COc2ccccc2F)c1`, the IC50 was 21.6 µM. For `COc1cc([N+](=O)[O-])ccc1OCc1cccc(/C=N/NC(=O)C(=O)NCCCN2CCOCC2)c1`, the IC50 was 28.4 µM. Molecule `O=C(NCCCN1CCOCC1)C(=O)N/N=C/c1cccc(COc2ccc([N+](=O)[O-])cc2)c1` has an IC50 of 27.8 µM. Work on `COc1ccccc1OCc1cccc(/C=N/NC(=O)C(=O)NCCCN2CCOCC2)c1` yielded an IC50 of 47.8 µM.
